Source: patent US9476017B2, “Compositions and methods for cleaning, disinfecting, and sanitizing that are effluent neutral” (Diversey, Inc, priority 2012, dated 2016)
Like-named read-outs stand apart in the source and are kept apart here.

How the values were obtained:
Lactobacillus brevis = experiment: Efficiency against Lactobacillus brevis, EN 1276; assay type: cell-based
Method: (§1) Testing was done according to test protocols EN 1276 and EN 1650. Formulation B and Formulation D (a peracetic acid-based formulation) were tested separately and in combination. Formulation B was also tested in combination with hydrogen peroxide. Tests were run at 20°, 40° C. and 60° C. in the presence of 1% ferment soil at contact times of 10, 20 and 30 minutes. Kill rates are expressed as log reductions.

fermentative wild yeasts = experiment: Efficiency against fermentative wild yeasts; assay type: cell-based; conditions: all temperatures, 20 minutes or longer
Method: as §1
At 20° C. and 40° C., 0.28% peroxide […] was ineffective on Lactobacilli. The higher kill rate at 60° C. is mainly due to temperature.

[1] = Method: Formulation B was combined with three sanitizing additives hydrogen peroxide (i.e., “peroxide”), peracetic acid (PAA) and chlorine dioxide. Testing was conducted at 80° C. to simulate CIP tank conditions. Ferment soil was added to the tests to further simulate real conditions.
Saccharomyces cerevisiae = experiment: Yeast growth test (Example 6); assay type: cell-based; conditions: supplement at concentrations above 10 ppm; 30° C.; compared to control without supplements
Method: These experiments were used to investigate whether potential residues of cleaning formulations described herein have any impact on the growth or metabolism of a fermentative yeast cell. Saccharomyces cerevisiae was selected as a typical member of fermenting yeasts. Malt extract agar tubes with an angular surface were used to grow starter cultures. Two globules that were covered with Saccaromyces cerevisiae (from a freeze culture collection DSM 1333) were streaked onto an agar surface and incubated at 30° C. for 3 days. Yeast colonies were grown, transferred to liquid growth media and incubated for 15-20 hours at 30° C. A second transfer was conducted into fresh liquid medium. The grown medium was transferred into closed, sterile tubes and centrifuged for 20 minutes at 8000 G. The liquid was decanted and the pellets collected in 10 mL of sterile Ringer solution. A Thoma Hemocytometer was prepared. Cells of 4 squares across were counted. Counted numbers from 4 squares were averaged and cell concentrations were calculated. The concentration of cells in the original mixture=number of cells counted*10^6=cells/mL. Dilutions were made to reach final cell concentration of 1×10^6/mL in culture medium. […] Start extinction was measured at 578 nm with help of a spectrophotometer. […] Every 1 to 2 hours samples were taken and extinctions were measured. […] The difference ∂ of extinction to start was calculated. […]

Compound: CC(=O)OO [Peracetic acid, peracetic acid]
- effectiveness (Lactobacillus brevis; 0.3% (450 ppm), all temperatures, 20 minutes or longer): very effective
- effectiveness (fermentative wild yeasts; 0.15% (225 ppm PAA)): very effective
- effectiveness (fermentative wild yeasts; 0.3% (450 ppm)): very effective
- stability ([1]; in Formulation B and ferment soil, versus high alkaline solutions): better stability
- half life ([1]; in the presence of Formulation B, 80° C., ferment soil): > 30 min

Compound: [Na+].[OH-] [Caustic Soda, sodium hydroxide]
- S. cerevisiae cell growth (Saccharomyces cerevisiae): significantly decreased or even inhibited

Compound: [O][Cl+][O-] [Chlorine dioxide, chlorine dioxide]
- stability ([1]; 10 ppm, 80° C., ferment soil): very unstable

Compound: OO [hydrogen peroxide]
- effectiveness (Lactobacillus brevis; 0.28% (1000 ppm), at 20° C. and 40° C.): ineffective
- effectiveness (Lactobacillus brevis; 1.4% (5000 ppm), at 40° C. and 20 minute contact times): became effective
